Reference: patent publication US20230286943A1, “IL-17A MODULATORS” (SANOFI, priority 2020, published 2023)
Marks after values point to notes of the source that are not given here.

What follows are compounds tested against human recombinant IL-17A (Homo sapiens (Human), UniProt Q16552) (assay: IL-17A AlphaLISA Assay (competition: block binding of IL-17A to its receptor IL-17RA)). Settings: compounds pre-incubated with IL-17A for 30 min (indicated by *).
Chain of human recombinant IL-17A (Q16552 24-155): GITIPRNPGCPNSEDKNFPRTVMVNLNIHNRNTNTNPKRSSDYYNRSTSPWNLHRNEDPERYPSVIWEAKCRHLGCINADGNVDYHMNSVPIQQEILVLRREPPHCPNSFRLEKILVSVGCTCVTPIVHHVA
Experimental: The ability of the compounds to block binding of IL-17A to its receptor, IL-17RA, was analysed in a competition assay using AlphaLISA technology (Perkin Elmer). The assay is a bead based AlphaLISA where the IL-17RA is captured on the acceptor bead via an Fc tag and IL-17A is captured on the streptavidin donor bead via a biotinylated anti-IL-17A antibody.
Assay buffer was prepared by adding 0.05% Tween-20 (v/v) and 0.1% BSA to Phosphate Buffered Saline (PBS). The assay was carried out in 384-well white low volume plates (Corning 4512). 10 μL of a 7.5 nM stock of human recombinant IL-17A (R&D Systems 7955-IL/CF) diluted in assay buffer was dispensed into the assay plate and compounds or DMSO vehicle control were added in a volume of 75 nL using a D300 dispenser (Hewlett Packard). The compounds were pre-incubated with the IL-17A for 24 h at room temperature (or for 30 min, where indicated by * in Table A below) prior to addition of 5 μL of a 5 nM stock of human recombinant IL-17RA/Fc chimera (R&D Systems 177-IR-100) diluted in assay buffer. The IL-17A was incubated with the receptor for a further 90 minutes at room temperature before addition of 5 μL of a mixture of anti-human Fc IgG acceptor beads (75 μg/mL, Perkin Elmer AL103C) and anti-IL-17A biotin conjugated antibody (5 nM, Enzo Life Sciences, ENZ-ABS278-0100) in assay buffer. After a further 30 min incubation at room temperature, 5 μL of streptavidin donor beads (75 μg/mL, Perkin Elmer 6760002S) were added and the plate was incubated for 3 h in the dark.
The luminescence signal was measured using an Enspire plate reader (Perkin Elmer) with excitation at 680 nm and emission at 615 nm. Data were analysed using GraphPad Prism and fitted to a 4-parameter logistic equation. The IC50 values were calculated using the DMSO vehicle as the negative control and a high concentration (6 μM) of a reference IL-17A inhibitor as the positive control.
Activity of the Example compounds is reported as a pIC50 value in Table A.
For `Cc1c(-c2ccc(NC(=O)[C@@H](NC(=O)c3ccnn3C)C3CCC(F)(F)CC3)cc2)ccc(=O)n1C` [Example 20, (S)-N-(1-(4,4-Difluorocyclohexyl)-2-((4-(1,2-dimethyl-6-oxo-1,6-dihydropyridin-3-yl)phenyl)amino)-2-oxoethyl)-1-methyl-1H-pyrazole-5-carboxamide], the “AlphaLISA pIC50” value was 6.0*.
For `Cc1c(-c2ccc(NC(=O)[C@@H](NC(=O)c3ccnn3C)C3CCC(C)(C)CC3)cc2)ccc(=O)n1C` [Example 21, (S)-N-(2-((4-(1,2-Dimethyl-6-oxo-1,6-dihydropyridin-3-yl)phenyl)amino)-1-(4,4-dimethylcyclohexyl)-2-oxoethyl)-1-methyl-1H-pyrazole-5-carboxamide], the “AlphaLISA pIC50” value was 6.0*.
`Cc1nnn(C)c1-c1ccc(NC(=O)[C@@H](NC(=O)c2ccnn2C)[C@H]2CC[C@H](C)CC2)nc1` [Example 44, N-((S)-2-((5-(1,4-Dimethyl-1H-1,2,3-triazol-5-yl)pyridin-2-yl)amino)-1-((1r,4S)-4-methylcyclohexyl)-2-oxoethyl)-1-methyl-1H-pyrazole-5-carboxamide] was tested, and the “AlphaLISA pIC50” value was 6.8*.
For `CCn1nccc1C(=O)N[C@H](C(=O)Nc1ccc(-c2c(C)c[n+]([O-])cc2C)cn1)[C@H]1CC[C@H](C)CC1` [Example 58, 6-((S)-2-(1-Ethyl-1H-pyrazole-5-carboxamido)-2-((1 r,4S)-4-methylcyclohexyl)acetamido)-3′,5′-dimethyl-[3,4′-bipyridine]1′-oxide], the “AlphaLISA pIC50” value was 6.9*.
`COc1c(-c2ccc(NC(=O)[C@@H](NC(=O)c3ccnn3C)[C@H]3CC[C@H](C)CC3)nc2)ccnc1C` [Example 70, N-((S)-2-((3′-methoxy-2′-methyl-[3,4′-bipyridin]-6-yl)amino)-1-((1r,4S)-4-methylcyclohexyl)-2-oxoethyl)-1-methyl-1H-pyrazole-5-carboxamide] was tested, and the “AlphaLISA pIC50” value was 6.1*.
`Cc1cnn(C)c1-c1ncc(NC(=O)[C@@H](NC(=O)c2ccnn2C)[C@H]2CC[C@H](C)CC2)cc1F` [Example 98, N-((S)-2-((6-(1,4-dimethyl-1H-pyrazol-5-yl)-5-fluoropyridin-3-yl)amino)-1-((1 r,4S)-4-methylcyclohexyl)-2-oxoethyl)-1-methyl-1H-pyrazole-5-carboxamide] was tested, and the “AlphaLISA pIC50” value was 6.3*.
For `Cc1cnn(C)c1-c1ccc(NC(=O)[C@@H](NC(=O)c2ccnn2C)C2CCCC2)nc1` [Example 102, (S)-N-(1-cyclopentyl-2-((5-(1,4-dimethyl-1H-pyrazol-5-yl)pyridin-2-yl)amino)-2-oxoethyl)-1-methyl-1H-pyrazole-5-carboxamide], the “AlphaLISA pIC50” value was 6.1*.
With `CCn1nccc1C(=O)N[C@H](C(=O)Nc1cnc(-c2c(C)cnn2C)c(F)c1)[C@H]1CC[C@H](C)CC1` [Example 108, N-((S)-2-((6-(1,4-dimethyl-1H-pyrazol-5-yl)-5-fluoropyridin-3-yl)amino)-1-((1 r,4S)-4-methylcyclohexyl)-2-oxoethyl)-1-ethyl-1H-pyrazole-5-carboxamide] the “AlphaLISA pIC50” value was 6.8*.
With `Cc1nsc(C)c1-c1ccc(NC(=O)[C@@H](NC(=O)c2cnnn2C)[C@H]2CC[C@H](C)CC2)nc1` [Example 116, N-((S)-2-((5-(3,5-dimethylisothiazol-4-yl)pyridin-2-yl)amino)-1-((1r,4S)-4-methylcyclohexyl)-2-oxoethyl)-1-methyl-1H-1,2,3-triazole-5-carboxamide] the “AlphaLISA pIC50” value was 6.0*.

Same assay, conditions: compounds pre-incubated with IL-17A for 24 h at room temperature
For `Cc1c(-c2ccc(NC(=O)[C@@H](NC(=O)c3ccnn3C)[C@H]3CC[C@H](C)CC3)nc2)ccc(=O)n1C` [Example 8, N-((S)-2-((1′,2′-Dimethyl-6′-oxo-1′,6′-dihydro-[3,3′-bipyridin]-6-yl)amino)-1-((1 r,4S)-4-methylcyclohexyl)-2-oxoethyl)-1-methyl-1H-pyrazole-5-carboxamide], the “AlphaLISA pIC50” value was 6.0.
